In experiment [1] the target is T1, CE-2 in lysed human breast cancer cells (MCF-7) (Homo sapiens, UniProt O00748).
T1 construct: endogenous in cells; host or cells: MCF-7 (sonicated lysate)
T1 sequence (O00748 27-559): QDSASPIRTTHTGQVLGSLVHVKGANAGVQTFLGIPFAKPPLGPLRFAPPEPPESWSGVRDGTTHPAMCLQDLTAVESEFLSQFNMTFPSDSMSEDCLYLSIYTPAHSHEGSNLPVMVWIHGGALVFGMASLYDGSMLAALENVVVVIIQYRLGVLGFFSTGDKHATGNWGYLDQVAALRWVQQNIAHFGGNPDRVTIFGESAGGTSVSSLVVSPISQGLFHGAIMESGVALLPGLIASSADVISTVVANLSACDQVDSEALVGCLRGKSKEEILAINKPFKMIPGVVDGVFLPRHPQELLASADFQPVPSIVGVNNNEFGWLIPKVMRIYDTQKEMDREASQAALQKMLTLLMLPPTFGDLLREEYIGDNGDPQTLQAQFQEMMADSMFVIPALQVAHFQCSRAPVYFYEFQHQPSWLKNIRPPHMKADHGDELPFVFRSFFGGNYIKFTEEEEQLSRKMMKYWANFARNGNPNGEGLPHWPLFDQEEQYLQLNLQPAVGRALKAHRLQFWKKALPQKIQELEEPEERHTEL
Description: CE-2 activity on acetate esters in lysed MCF-7 cells, 1H NMR. The conditions noted are these: for k: 5 million lysed MCF-7 cells. The class given is biochemical. As to the method: Different classes of short chain esters, fulfilling the requirements for the hyperpolarization technique (stable, soluble, low molecular weight compounds (<400 Da), were evaluated as substrates for carboxyl esterases with the aim to identify esters as similar or better substrates for carboxyl esterases than 1,3-^13C2 ethyl acetoacetate. In most human cell types, including a wide range of cancer cells and lymphocytes, the activity of carboxyl esterase is dominated by the activities of isoforms 1 and 2 (CE-1 and CE-2). To measure exclusively the hydrolysis of carboxyl esterase from the CE-1 isoform, an isolated enzyme from porcine liver was applied. To measure almost exclusively the contribution of carboxyl esterase activity from the CE-2 isoform, human breast cancer cells (MCF-7) were employed. These cells are known from literature to express CE-2 but not to express CE-1 (Byun et al, 2008, Cancer letters 266:238-48). A group of esters was investigated as substrates for CE-1, which contained different structural features. […] Also esters with large alcohol groups and small acid groups were investigated. In this group, the acid part of the molecule was always acetate and different structural properties of the alcohol were investigated. These consisted of esters of un-substituted alcohols (examples ethyl acetate and butyl acetate), esters of branched chain alcohols (examples t-butyl acetate, ethyl 3-acetoxy butanoate and 2-acetoxy propionate), esters of aromatic alcohols (example benzyl acetate), esters of diols (example ethyleneglycol diacetate), esters of triols (example triacetin). Esters of alpha-keto acids were too unstable to be investigated in this assay. Esters of larger alcohols are not water soluble and therefore not relevant substrates for the purpose of the invention. Similarly, a group of esters which contained different structural features was investigated as substrates for CE-2. CE-2 substrates are described in the literature to consist of a small acid group and a larger alcohol group. All included esters were acetate esters (i.e. esters of acetic acid) in the interest of keeping the acid moiety the smallest possible. The acetate esters measured for CE-2 activity were therefore the same as those measured in the second group of possible substrates for CE-1. The CE-2 experiments were performed with lysed breast cancer cells (MCF-7). MCF-7 cells were grown in RPMI medium with 10% FBS and antibiotics. They were at confluence harvested by trypsination and washed once with 5 ml PBS. They were spun down and resuspended in PBS to a concentration of 20 mill. cells/ml. The cells were hereafter sonicated on ice (50% amplitude, 1 min, 3 sec pulse). 250 μl sonicated cell suspension was mixed with 250 μl 400 mM phosphate buffer pH 7.3. […] The substrate was added (50 μl, 60 mM) and the tube turned for mixing before it was inserted into the spectrometer. An initial spectrum was acquired and the sample was hereafter placed at 37° C. for 1 hour in a water bath. The sample was again inserted into the magnet and a second spectrum was recorded. The data was analysed with MNOVA software and measured as percentage conversion of substrate calculated to account for the amount of substrate converted over 60 min. The numbers are given in μmol/hour.

Experiment [2] concerns isolated CE-1 enzyme from porcine liver. Description: CE-1 activity on short chain esters, 1H NMR. The conditions noted are these: 37° C.; for k: 26 μmol substrate, conversion over 60 min. The class given is biochemical. An excerpt:
To measure almost exclusively the contribution of carboxyl esterase activity from the CE-2 isoform, human breast cancer cells (MCF-7) were employed. These cells are known from literature to express CE-2 but not to express CE-1 (Byun et al, 2008, Cancer letters 266:238-48). A group of esters was investigated as substrates for CE-1, which contained different structural features. These consisted of esters of un-substituted acids (examples are ethyl acetate, ethyl butyrate, methyl butyrate), esters of acids substituted on C2 (examples are ethyl lactate and ethyl 2-acetoxy propanoate), esters of acids substituted on C3 (examples are ethyl 3-hydroxy butyrate and ethyl 3-acetoxy butanoate), esters of ring closed acids (example ethyl pyroglutamate), esters of di-acids (examples are diethyl succinate and dimethyl succinate), esters of tri-acids (example triethyl citrate), ethyl esters of beta-keto acids (example ethyl acetoacetate). Also esters with large alcohol groups and small acid groups were investigated. In this group, the acid part of the molecule was always acetate and different structural properties of the alcohol were investigated. These consisted of esters of un-substituted alcohols (examples ethyl acetate and butyl acetate), esters of branched chain alcohols (examples t-butyl acetate, ethyl 3-acetoxy butanoate and 2-acetoxy propionate), esters of aromatic alcohols (example benzyl acetate), esters of diols (example ethyleneglycol diacetate), esters of triols (example triacetin). […] Similarly, a group of esters which contained different structural features was investigated as substrates for CE-2. CE-2 substrates are described in the literature to consist of a small acid group and a larger alcohol group. All included esters were acetate esters (i.e. esters of acetic acid) in the interest of keeping the acid moiety the smallest possible. The acetate esters measured for CE-2 activity were therefore the same as those measured in the second group of possible substrates for CE-1.
The CE-1 experiments were performed with commercially available CE-1 from porcine liver. Individual samples of the substrates were all prepared the following way: 26 μmol was weighted in an eppendorf tube. 550 μl deuterated phosphate buffer (200 mM, pH 7.5) was added and the substrate was brought into solution by whirl mixing. The solution was transferred to a 5 mm NMR tube and inserted in the spectrometer at 37° C. A reference experiment was acquired on the substrate solution without enzyme after which 10 μl of an esterase stock solution (37 U/ml in deuterated phosphate buffer) was added in the top of the tube. The sample was mixed and returned to the spectrometer. A series of thermal 1D ^1H NMR experiments were recorded every 5 min for 60 min. The data were analysed with MNOVA software and measured as percentage conversion of substrate calculated to account for the amount of substrate converted over 60 min. The numbers are given in μmol/min.

With `CC(=O)OCc1ccccc1` [Benzyl acetate], the “k” value in experiment [1] (37° C., 1 hour) worked out at 1.05 µmol/min; in experiment [2], 0.07 µmol/min. The “hydrolysis by CE-2, in words” value in experiment [1] (lysed MCF-7 cells) was “hydrolysed particularly fast”; in experiment [1] (lysed MCF-7 cells, listed as benzyl acetate), “the best”.

On to `CC(=O)OCC(COC(C)=O)OC(C)=O` [Tri-acetin], for which the “k” value in experiment [1] (37° C., 1 hour) was found to be 0.27 µmol/min; in experiment [2] it was 0.02 µmol/min. The “hydrolysis by CE-2, in words” value in experiment [1] (lysed MCF-7 cells) is “hydrolysed to a similar extent”.

`CCOC(=O)CC(C)OC(C)=O` (centres unmarked) [ethyl 3-acetoxy butanoate]: the “k (μmol/min), acetate ester” value in experiment [1] (hydrolysis of the acetate ester function, lysed MCF-7 cells, 37° C., 1 hour) came to 0.18 µmol/min; in experiment [2] (hydrolysis of the acetate ester function, 60 min), 0 µmol/min. In addition, in experiment [1] (lysed MCF-7 cells), the “hydrolysis by CE-2, in words” value is recorded as “hydrolysed to a similar extent”. Further, in experiment [2] (hydrolysis of the ethyl ester function, 60 min), the “k (μmol/min), ethyl ester” value turned out to be 0.08 µmol/min.

Values taken from patent US20150133341A1, “Intra-Operative Cancer Diagnosis Based on a Hyperpolarized Marker” (ALBEDA INNOVATIONS APS, priority 2012, published 2015).
